Experimental data from US9695155B2, “Herbicidal substituted pyrimidinyloxy benzene compounds” (E. I. DU PONT DE NEMOURS AND COMPANY, priority 2013, dated 2017).

Assays:
[1] = tested on: barnyardgrass; experiment: Test A preemergence; format: in vivo, Echinochloa crus-galli; conditions: for Barnyardgrass plant response rating (0 to 100 scale, 0 is no effect, 100 is complete control): 125 g ai/ha; for Barnyardgrass plant response rating: 500 g ai/ha, 0 to 100 scale where 0 is no effect and 100 is complete control
Outline: (§1)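 Compounds in non-phytotoxic solvent with surfactant applied as soil spray preemergence, or postemergence to plants 2-10 cm at one- to two-leaf stage, in loam/sand. After approximately 10 days in greenhouse, injury rated visually versus untreated controls, 0 (no effect) to 100 (complete control).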

[2] = tested on: large (Lg) crabgrass; experiment: Test A preemergence; format: in vivo, Digitaria sanguinalis; conditions: for Crabgrass, Large plant response rating (0 to 100 scale): 125 g ai/ha; for Crabgrass, Large plant response rating: 500 g ai/ha, 0 to 100 scale where 0 is no effect and 100 is complete control
Outline: as §1

[3] = tested on: giant foxtail; experiment: Test A preemergence; format: in vivo, Setaria faberii; conditions: for Foxtail, Giant plant response rating (0 to 100 scale): 125 g ai/ha; for Foxtail, Giant plant response rating: 500 g ai/ha, 0 to 100 scale where 0 is no effect and 100 is complete control
Outline: as §1

[4] = tested on: morningglory; experiment: Test A preemergence; format: in vivo, Ipomoea spp.; conditions: for Morningglory plant response rating (0 to 100 scale): 125 g ai/ha; for Morningglory plant response rating: 500 g ai/ha, 0 to 100 scale where 0 is no effect and 100 is complete control
Outline: as §1

[5] = tested on: pigweed; experiment: Test A preemergence; format: in vivo, Amaranthus retroflexus; conditions: for Pigweed plant response rating (0 to 100 scale): 125 g ai/ha; for Pigweed plant response rating: 500 g ai/ha, 0 to 100 scale where 0 is no effect and 100 is complete control
Outline: as §1

[6] = tested on: velvetleaf; experiment: Test A preemergence; format: in vivo, Abutilon theophrasti; conditions: for Velvetleaf plant response rating (0 to 100 scale): 125 g ai/ha; for Velvetleaf plant response rating: 500 g ai/ha, 0 to 100 scale where 0 is no effect and 100 is complete control
Outline: as §1

[7] = tested on: wheat; experiment: Test A preemergence; format: in vivo, Triticum aestivum; conditions: for Wheat plant response rating (0 to 100 scale): 125 g ai/ha; for Wheat plant response rating: 500 g ai/ha, 0 to 100 scale where 0 is no effect and 100 is complete control
Outline: as §1

[8] = tested on: corn; experiment: Test A preemergence; format: in vivo, Zea mays; conditions: for Corn plant response rating (0 to 100 scale): 125 g ai/ha; for Corn plant response rating: 500 g ai/ha, 0 to 100 scale where 0 is no effect and 100 is complete control
Outline: as §1

[9] = tested on: barnyardgrass; experiment: Test A postemergence; format: in vivo, Echinochloa crus-galli
Outline: as §1

[10] = tested on: large (Lg) crabgrass; experiment: Test A postemergence; format: in vivo, Digitaria sanguinalis
Outline: as §1

[11] = tested on: giant foxtail; experiment: Test A postemergence; format: in vivo, Setaria faberii
Outline: as §1

[12] = tested on: morningglory; experiment: Test A postemergence; format: in vivo, Ipomoea spp.
Outline: as §1

[13] = tested on: pigweed; experiment: Test A postemergence; format: in vivo, Amaranthus retroflexus
Outline: as §1

[14] = tested on: velvetleaf; experiment: Test A postemergence; format: in vivo, Abutilon theophrasti
Outline: as §1

[15] = tested on: wheat; experiment: Test A postemergence; format: in vivo, Triticum aestivum
Outline: as §1

[16] = tested on: corn; experiment: Test A postemergence; format: in vivo, Zea mays
Outline: as §1

[17] = tested on: rice; experiment: Test B flooded paddy test; format: in vivo, Oryza sativa; conditions: Flood, 250 g ai/ha; 0 to 100 scale where 0 is no effect and 100 is complete control
Outline: (§2)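 Flooded to 3 cm at the 2-leaf stage, pots received compound through the paddy water and were kept at that depth under greenhouse conditions. After 13–15 days, effect was rated by eye relative to controls, 0 = none and 100 = complete control.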

[18] = tested on: sedge, umbrella; experiment: Test B flooded paddy test; format: in vivo, Cyperus difformis; conditions: Flood, 250 g ai/ha; 0 to 100 scale where 0 is no effect and 100 is complete control
Outline: as §2

[19] = tested on: Heteranthera limosa; experiment: Test B flooded paddy test; format: in vivo; conditions: Flood, 250 g ai/ha; 0 to 100 scale where 0 is no effect and 100 is complete control
Outline: as §2

[20] = tested on: barnyardgrass; experiment: Test B flooded paddy test; format: in vivo, Echinochloa crus-galli; conditions: Flood, 250 g ai/ha; 0 to 100 scale where 0 is no effect and 100 is complete control
Outline: as §2

[21] = 125 g ai/ha, 0 to 100 scale, 0 no effect, 100 complete control
[22] = 500 g ai/ha, 0 to 100 scale where 0 is no effect and 100 is complete control

Row | Structure (SMILES) | Barnyardgrass plant response rating (0 to 100 scale, 0 is no effect, 100 is complete control) [1] | Barnyardgrass plant response rating [1] | Crabgrass, Large plant response rating (0 to 100 scale) [2] | Crabgrass, Large plant response rating [2] | Foxtail, Giant plant response rating (0 to 100 scale) [3] | Foxtail, Giant plant response rating [3] | Morningglory plant response rating (0 to 100 scale) [4] | Morningglory plant response rating [4] | Pigweed plant response rating (0 to 100 scale) [5] | Pigweed plant response rating [5] | Velvetleaf plant response rating (0 to 100 scale) [6] | Velvetleaf plant response rating [6] | Wheat plant response rating (0 to 100 scale) [7] | Wheat plant response rating [7] | Corn plant response rating (0 to 100 scale) [8] | Corn plant response rating [8] | Plant response rating, Barnyardgrass [9, 21] | Plant response rating, Barnyardgrass [9, 22] | Plant response rating, Crabgrass, Large [10, 21] | Plant response rating, Crabgrass, Large [10, 22] | further results
1 | CC1(C)OB(c2cnn(-c3c(C#N)cccc3Oc3ncc(Cl)cn3)c2)OC1(C)C [Compound 285] | 0 | 30 | 80 | 100 | 20 | 100 | 0 | 40 | 80 | 100 | 10 | 40 | 0 | 20 | 0 | 20 | 0 | 30 | 10 | 40 | Plant response rating, Foxtail, Giant [11, 21]: 0; Plant response rating, Foxtail, Giant [11, 22]: 60; Plant response rating, Morningglory [12, 21]: 30; Plant response rating, Morningglory [12, 22]: 40; Plant response rating, Pigweed [13, 21]: 80; Plant response rating, Pigweed [13, 22]: 100; Plant response rating, Velvetleaf [14, 21]: 30; Plant response rating, Velvetleaf [14, 22]: 80; Plant response rating, Wheat [15, 21]: 0; Plant response rating, Wheat [15, 22]: 20; Plant response rating, Corn [16, 21]: 0; Plant response rating, Corn [16, 22]: 30; Plant response rating, Rice [17]: 0; Plant response rating, Sedge, Umbrella [18]: 0; Plant response rating, Ducksalad [19]: 0; Plant response rating, Barnyardgrass [20]: 0
2 | Clc1cnc(Oc2cccc(-c3ncco3)c2-n2cc(Br)cn2)nc1 [Compound 287] | 0 | 0 | 0 | 70 | 0 | 40 | 0 | 0 | 0 | 100 | 0 | 0 | 0 | 0 | 0 | 0 | 0 | 0 | 10 | 20 | Plant response rating, Foxtail, Giant [11, 21]: 0; Plant response rating, Foxtail, Giant [11, 22]: 0; Plant response rating, Morningglory [12, 21]: 10; Plant response rating, Morningglory [12, 22]: 20; Plant response rating, Pigweed [13, 21]: 30; Plant response rating, Pigweed [13, 22]: 50; Plant response rating, Velvetleaf [14, 21]: 10; Plant response rating, Velvetleaf [14, 22]: 20; Plant response rating, Wheat [15, 21]: 0; Plant response rating, Wheat [15, 22]: 0; Plant response rating, Corn [16, 21]: 0; Plant response rating, Corn [16, 22]: 0; Plant response rating, Rice [17]: 0; Plant response rating, Sedge, Umbrella [18]: 0; Plant response rating, Ducksalad [19]: 0; Plant response rating, Barnyardgrass [20]: 0
3 | NN=Cc1cccc(Oc2ncc(Cl)cn2)c1-n1cc(Br)cn1 [Compound 288] | 0 | 10 | 0 | 10 | 0 | 0 | 0 | 0 | 20 | 90 | 0 | 10 | 0 | 0 | 0 | 0 | 0 | 10 | 10 | 20 | Plant response rating, Foxtail, Giant [11, 21]: 10; Plant response rating, Foxtail, Giant [11, 22]: 20; Plant response rating, Morningglory [12, 21]: 20; Plant response rating, Morningglory [12, 22]: 40; Plant response rating, Pigweed [13, 21]: 90; Plant response rating, Pigweed [13, 22]: 100; Plant response rating, Velvetleaf [14, 21]: 20; Plant response rating, Velvetleaf [14, 22]: 30; Plant response rating, Wheat [15, 21]: 0; Plant response rating, Wheat [15, 22]: 0; Plant response rating, Corn [16, 21]: 0; Plant response rating, Corn [16, 22]: 10; Plant response rating, Rice [17]: 0; Plant response rating, Sedge, Umbrella [18]: 0; Plant response rating, Ducksalad [19]: 0; Plant response rating, Barnyardgrass [20]: 0
4 | Clc1cnc(Oc2cccc(-c3cnoc3)c2-n2cc(Br)cn2)nc1 [Compound 291] | 0 | 50 | 50 | 90 | 20 | 80 | 0 | 0 | 60 | 90 | 40 | 60 | 0 | 0 | 0 | 0 | 0 | 40 | 10 | 60 | Plant response rating, Foxtail, Giant [11, 21]: 0; Plant response rating, Foxtail, Giant [11, 22]: 50; Plant response rating, Morningglory [12, 21]: 30; Plant response rating, Morningglory [12, 22]: 40; Plant response rating, Pigweed [13, 21]: 30; Plant response rating, Pigweed [13, 22]: 70; Plant response rating, Velvetleaf [14, 21]: 50; Plant response rating, Velvetleaf [14, 22]: 60; Plant response rating, Wheat [15, 21]: 0; Plant response rating, Wheat [15, 22]: 0; Plant response rating, Corn [16, 21]: 0; Plant response rating, Corn [16, 22]: 10; Plant response rating, Rice [17]: 0; Plant response rating, Sedge, Umbrella [18]: 0; Plant response rating, Ducksalad [19]: 0; Plant response rating, Barnyardgrass [20]: 0
5 | CCOC(=O)c1cnn(-c2c(C#N)cccc2Oc2ncc(Br)cn2)c1 [Compound 294] | 0 | 20 | 30 | 60 | 30 | 70 | 0 | 0 | 100 | 100 | 10 | 70 | 0 | 0 | 0 | 0 | 20 | 60 | 0 | 50 | Plant response rating, Foxtail, Giant [11, 21]: 10; Plant response rating, Foxtail, Giant [11, 22]: 50; Plant response rating, Morningglory [12, 21]: 20; Plant response rating, Morningglory [12, 22]: 30; Plant response rating, Pigweed [13, 21]: 60; Plant response rating, Pigweed [13, 22]: 90; Plant response rating, Velvetleaf [14, 21]: 50; Plant response rating, Velvetleaf [14, 22]: 60; Plant response rating, Wheat [15, 21]: 0; Plant response rating, Wheat [15, 22]: 40; Plant response rating, Corn [16, 21]: 0; Plant response rating, Corn [16, 22]: 40; Plant response rating, Rice [17]: 0; Plant response rating, Sedge, Umbrella [18]: 0; Plant response rating, Ducksalad [19]: 0; Plant response rating, Barnyardgrass [20]: 0
